# Measured values from patent US12448399B2, “Cereblon-based KRAS degrading PROTACs and uses related thereto” (Arvinas Operations, Inc., priority 2023, dated 2025).
# Biological target: T1, KRas-G12D (Homo sapiens, UniProt P01116, G12D)
# T1 construct: insert the HiBiT tag onto the N-terminus of one or more of the endogenous KRas alleles; host or cells: AsPC-1 HiBiT-KRasG12D knock-in clone (one tagged allele, two untagged KRasG12D alleles)
# Test: HiBiT Degradation Assay (G12D), AsPC-1 HiBiT-KRasG12D cells, 24 hr
# Assay type: cell-based
# Conditions: for Dmax: ASPC1, AsPC-1 cells, maximum degradation observed; for DC50: AsPC-1 cells
# Summary of the method: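 Degradation was read after 24 hr compound exposure (0.5% DMSO, 37° C) by Nano-Glo HiBiT lytic luminescence in AsPC-1 cells carrying a HiBiT tag on one of three KRasG12D alleles. Signal relative to DMSO gave DC50 and Dmax by 4-parameter fit; alamar blue fluorescence monitored cytotoxicity.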
# T1 sequence (P01116 1-188 isoform P01116-2 G12D): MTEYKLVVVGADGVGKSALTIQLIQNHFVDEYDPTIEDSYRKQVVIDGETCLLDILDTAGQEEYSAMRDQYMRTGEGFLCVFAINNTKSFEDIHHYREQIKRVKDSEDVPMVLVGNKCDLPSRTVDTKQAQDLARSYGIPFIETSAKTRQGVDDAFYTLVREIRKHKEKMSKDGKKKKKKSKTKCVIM
Compound,Dmax [%],DC50 [µM]
"C#Cc1c(F)ccc2cc(O)cc(-c3ncc4c(N5CC6CCC(C5)N6)nc(OCCN5CCC(CC6CCN(c7cccc8c7n(C)c(=O)n8C7CCC(=O)NC7=O)CC6)CC5)nc4c3F)c12 (stereo not drawn) [Compound 129, 3-(4-{4-[(1-{2-[(4-{3,8-diazabicyclo[3.2.1]octan-3-yl}-7-(8-ethynyl-7-fluoro-3-hydroxynaphthalen-1-yl)-8-fluoropyrido[4,3-d]pyrimidin-2-yl)oxy]ethyl}piperidin-4-yl)methyl]piperidin-1-yl}-3-methyl-2-oxo-2,3-dihydro-1H-1,3-benzodiazol-1-yl)piperidine-2,6-dione]",> 70,< 5.1
"C#Cc1c(F)ccc2cc(O)cc(-c3ncc4c(N5CC6CCC(C5)N6)nc(OCCN5CCC(CC6CCN(CC7CCN(c8cc(F)cc9c8CN(C8CCC(=O)NC8=O)C9=O)CC7)CC6)CC5)nc4c3F)c12 (stereo not drawn) [Compound 130, 3-{4-[4-({4-[(1-{2-[(4-{3,8-diazabicyclo[3.2.1]octan-3-yl}-7-(8-ethynyl-7-fluoro-3-hydroxynaphthalen-1-yl)-8-fluoropyrido[4,3-d]pyrimidin-2-yl)oxy]ethyl}piperidin-4-yl)methyl]piperidin-1-yl}methyl)piperidin-1-yl]-6-fluoro-1-oxo-2,3-dihydro-1H-isoindol-2-yl}piperidine-2,6-dione]",> 70,< 5.1
"C#Cc1c(F)ccc2cc(O)cc(-c3ncc4c(N5CC6CCC(C5)N6)nc(OCCN5CCC(CC6(F)CCN(CC7CCN(c8cccc9c8CN(C8CCC(=O)NC8=O)C9=O)CC7)CC6)CC5)nc4c3F)c12 (stereo not drawn) [Compound 131, 3-{4-[4-({4-[(1-{2-[(4-{3,8-diazabicyclo[3.2.1]octan-3-yl}-7-(8-ethynyl-7-fluoro-3-hydroxynaphthalen-1-yl)-8-fluoropyrido[4,3-d]pyrimidin-2-yl)oxy]ethyl}piperidin-4-yl)methyl]-4-fluoropiperidin-1-yl}methyl)piperidin-1-yl]-1-oxo-2,3-dihydro-1H-isoindol-2-yl}piperidine-2,6-dione]",> 70,< 5.1
"C#Cc1c(F)ccc2cc(O)cc(-c3ncc4c(N5CC6CCC(C5)N6)nc(OCCN5CCC6(CC5)CCN(CC5CCN(c7cccc8c7CN(C7CCC(=O)NC7=O)C8=O)CC5)CC6)nc4c3F)c12 (stereo not drawn) [Compound 132, 3-(4-{4-[(9-{2-[(4-{3,8-diazabicyclo[3.2.1]octan-3-yl}-7-(8-ethynyl-7-fluoro-3-hydroxynaphthalen-1-yl)-8-fluoropyrido[4,3-d]pyrimidin-2-yl)oxy]ethyl}-3,9-diazaspiro[5.5]undecan-3-yl)methyl]piperidin-1-yl}-1-oxo-2,3-dihydro-1H-isoindol-2-yl)piperidine-2,6-dione]",> 70,< 5.1
"C#Cc1c(F)ccc2cc(O)cc(-c3ncc4c(N5CC6CCC(C5)N6)nc(OCCN5CCC(CC6CCN(CC7CCN(c8cccc9c8n(C)c(=O)n9C8CCC(=O)NC8=O)CC7)CC6)CC5)nc4c3F)c12 (stereo not drawn) [Compound 133, 3-{4-[4-({4-[(1-{2-[(4-{3,8-diazabicyclo[3.2.1]octan-3-yl}-7-(8-ethynyl-7-fluoro-3-hydroxynaphthalen-1-yl)-8-fluoropyrido[4,3-d]pyrimidin-2-yl)oxy]ethyl}piperidin-4-yl)methyl]piperidin-1-yl}methyl)piperidin-1-yl]-3-methyl-2-oxo-2,3-dihydro-1H-1,3-benzodiazol-1-yl}piperidine-2,6-dione]",> 70,< 5.1
C#Cc1c(F)ccc2cc(O)cc(-c3nc(N4CC5CCC(C4)N5)c4cnc(OCCN5CCC6(CC5)CCN(CC5CCN(c7ccc8c(c7)CN(C7CCC(=O)NC7=O)C8=O)CC5)CC6)nc4c3F)c12 (stereo not drawn) [Compound 134],> 70,< 5.1
"C#Cc1c(F)ccc2cc(O)cc(-c3ncc4c(N5CC6CCC(C5)N6)nc(OCCN5CCC6(CC5)CN(CC5CCN(c7cccc8c7CN(C7CCC(=O)NC7=O)C8=O)CC5)C6)nc4c3F)c12 (stereo not drawn) [Compound 135, 3-(4-{4-[(7-{2-[(4-{3,8-diazabicyclo[3.2.1]octan-3-yl}-7-(8-ethynyl-7-fluoro-3-hydroxynaphthalen-1-yl)-8-fluoropyrido[4,3-d]pyrimidin-2-yl)oxy]ethyl}-2,7-diazaspiro[3.5]nonan-2-yl)methyl]piperidin-1-yl}-1-oxo-2,3-dihydro-1H-isoindol-2-yl)piperidine-2,6-dione]",–,0.25 to 1
"C#Cc1c(F)ccc2cc(O)cc(-c3ncc4c(N5CC6CCC(C5)N6)nc(OCCN5CCC(CN6CCN(CC7CCN(c8cccc9c8CN(C8CCC(=O)NC8=O)C9=O)CC7)CC6)CC5)nc4c3F)c12 (stereo not drawn) [Compound 136, 3-{4-[4-({4-[(1-{2-[(4-{3,8-diazabicyclo[3.2.1]octan-3-yl}-7-(8-ethynyl-7-fluoro-3-hydroxynaphthalen-1-yl)-8-fluoropyrido[4,3-d]pyrimidin-2-yl)oxy]ethyl}piperidin-4-yl)methyl]piperazin-1-yl}methyl)piperidin-1-yl]-1-oxo-2,3-dihydro-1H-isoindol-2-yl}piperidine-2,6-dione]",> 70,< 5.1
"CCc1c(F)ccc2cc(O)cc(-c3ncc4c(N5CC6CCC(C5)N6)nc(OCCN5CCC(CC6CCN(CC7CCN(c8cccc9c8CN(C8CCC(=O)NC8=O)C9=O)CC7)CC6)CC5)nc4c3F)c12 (stereo not drawn) [Compound 137, 3-{4-[4-({4-[(1-{2-[(4-{3,8-diazabicyclo[3.2.1]octan-3-yl}-7-(8-ethyl-7-fluoro-3-hydroxynaphthalen-1-yl)-8-fluoropyrido[4,3-d]pyrimidin-2-yl)oxy]ethyl}piperidin-4-yl)methyl]piperidin-1-yl}methyl)piperidin-1-yl]-1-oxo-2,3-dihydro-1H-isoindol-2-yl}piperidine-2,6-dione]",–,< 5.1
C#Cc1c(F)ccc2cc(O)cc(-c3ncc4c(N5CC6CCC(C5)N6)nc(OCCN5CCC(CC6CCN(CC7CCN(c8ccc9c(c8)CN(C8CCC(=O)NC8=O)C9=O)CC7)CC6)CC5)nc4c3F)c12 (stereo not drawn) [Compound 138],> 70,< 5.1
"CCc1cccc2cc(O)cc(-c3ncc4c(N5CC6CCC(C5)N6)nc(OC[C@@H]5C[C@@H](OC6CCN(CC7CCN(c8cccc9c8CN(C8CCC(=O)NC8=O)C9=O)CC7)CC6)CN5C)nc4c3F)c12 (stereo partly drawn) [Compound 139, 3-(4-{4-[(4-{[(3R,5S)-5-{[(4-{3,8-diazabicyclo[3.2.1]octan-3-yl}-7-(8-ethyl-3-hydroxynaphthalen-1-yl)-8-fluoropyrido[4,3-d]pyrimidin-2-yl)oxy]methyl}-1-methylpyrrolidin-3-yl]oxy}piperidin-1-yl)methyl]piperidin-1-yl}-1-oxo-2,3-dihydro-1H-isoindol-2-yl)piperidine-2,6-dione]",> 70,< 5.1
"C#Cc1c(F)ccc2cc(O)cc(-c3ncc4c(N5CC6CCC(C5)N6)nc(OCCN5CCC(CN6CC7(CCN(c8cccc9c8CN(C8CCC(=O)NC8=O)C9=O)CC7)C6)CC5)nc4c3F)c12 (stereo not drawn) [Compound 140, 3-(4-{2-[(1-{2-[(4-{3,8-diazabicyclo[3.2.1]octan-3-yl}-7-(8-ethynyl-7-fluoro-3-hydroxynaphthalen-1-yl)-8-fluoropyrido[4,3-d]pyrimidin-2-yl)oxy]ethyl}piperidin-4-yl)methyl]-2,7-diazaspiro[3.5]nonan-7-yl}-1-oxo-2,3-dihydro-1H-isoindol-2-yl)piperidine-2,6-dione]",–,0.25 to 1
CCc1cccc2cc(O)cc(-c3ncc4c(N5CC6CCC(C5)N6)nc(OCCN5CCC6(CC5)CN(c5cccc7c5CN(C5CCC(=O)NC5=O)C7=O)C6)nc4c3F)c12 (stereo not drawn) [Compound 141],–,> 1
O=C1CCC(N2Cc3c(ccc(N4CCC(CN5CCC(CC6CCN(CCOc7nc(N8CC9CCC(C8)N9)c8cnc(-c9cc(O)cc(Cl)c9C9CC9)c(F)c8n7)CC6)CC5)CC4)c3F)C2=O)C(=O)N1 (stereo not drawn) [Compound 142],> 70,< 5.1
C#Cc1c(F)ccc2cccc(-c3ncc4c(N5CC6CCC(C5)N6)nc(OC[C@]56CCCN5[C@H](CN5CCN(CC7CCN(c8ccc9c(c8)CN(C8CCC(=O)NC8=O)C9=O)CC7)CC5)CC6)nc4c3F)c12 (stereo partly drawn) [Compound 143],–,< 5.1
C#Cc1c(F)ccc2cccc(-c3ncc4c(N5CC6CCC(C5)N6)nc(OC[C@@H]5C[C@@H](OC6CCN(CC7CCN(c8ccc9c(c8)CN(C8CCC(=O)NC8=O)C9=O)CC7)CC6)CN5C)nc4c3F)c12 (stereo partly drawn) [Compound 144],–,< 5.1
C#Cc1c(F)ccc2cccc(-c3ncc4c(N5CC6CCC(C5)N6)nc(OC[C@]56CCCN5[C@H](CN5CCN(c7ccc8c(c7)CN(C7CCC(=O)NC7=O)C8=O)CC5)CC6)nc4c3F)c12 (stereo partly drawn) [Compound 145],> 70,0.1 to 5.25
C#Cc1c(F)ccc2cccc(-c3ncc4c(N5CC6CCC(C5)N6)nc(OC[C@@]56CCCN5[C@H](CN5CCN(c7ccc8c(c7)CN(C7CCC(=O)NC7=O)C8=O)CC5)CC6)nc4c3F)c12 (stereo partly drawn) [Compound 146],–,0.25 to 1
C#Cc1c(F)ccc2cccc(-c3ncc4c(N5CC6CCC(C5)N6)nc(OC[C@@]56CCCN5[C@H](CN5CCN(CC7CCN(c8ccc9c(c8)CN(C8CCC(=O)NC8=O)C9=O)CC7)CC5)CC6)nc4c3F)c12 (stereo partly drawn) [Compound 147],> 70,< 5.1
"C#Cc1c(F)ccc2cc(O)cc(-c3ncc4c(N5CC6CCC(C5)N6)nc(OCCN5CCC(CN6CCN(CC7CCN(c8cc(C)c9c(c8F)CN(C8CCC(=O)NC8=O)C9=O)CC7)CC6)CC5)nc4c3F)c12 (stereo not drawn) [Compound 148, 3-{5-[4-({4-[(1-{2-[(4-{3,8-diazabicyclo[3.2.1]octan-3-yl}-7-(8-ethynyl-7-fluoro-3-hydroxynaphthalen-1-yl)-8-fluoropyrido[4,3-d]pyrimidin-2-yl)oxy]ethyl}piperidin-4-yl)methyl]piperazin-1-yl}methyl)piperidin-1-yl]-4-fluoro-7-methyl-1-oxo-2,3-dihydro-1H-isoindol-2-yl}piperidine-2,6-dione]",> 70,< 5.1
